Several values for one entry are separate records, joined by “and”; a condition that tells them apart may be missing. Equal entries are not always repeated. Where two headings read alike, the source gives them in different places.
Key:
p38α MAPK [1] = target: T1, p38α MAPK (Homo sapiens, UniProt Q16539); details: cited from earlier work
p38α MAPK [2] = target: T1, p38α MAPK; details: n = 2; cited from earlier work
p38α MAPK [3] = target: T1, p38α MAPK; assay: HotSpot radiometric kinase assay (Reaction Biology); format: biochemical; details: n = 1; 10 μM ATP; read-out: IC50 isolated enzyme p38α MAPK HotSpot
Protocol: Hotspot^TM radiometric assay[49] was conducted by Reaction Biology (Reaction Biology Corp., Malvern, PA, USA). In brief, five-dose singleton measurements were conducted starting from 1 μM compound concentration with a ten-fold serial dilution (lowest concentration of 0.1 nM). ATP concentration of 10 μM was used in the assay.

p38α MAPK [4] = target: T1, p38α MAPK; assay: Fluorescence polarization (Transcreener ADP) jump-dilution target residence time; format: biochemical; details: for millipolarization mP: Compound 1 run, replicas 1-3
p38α MAP kinase = p38α MAP kinase (Homo sapiens, UniProt Q16539); assay: ADP-Glo luminescence kinase assay (isolated enzyme); format: biochemical
p38α MAP kinase, sequence (Q16539 whole entry): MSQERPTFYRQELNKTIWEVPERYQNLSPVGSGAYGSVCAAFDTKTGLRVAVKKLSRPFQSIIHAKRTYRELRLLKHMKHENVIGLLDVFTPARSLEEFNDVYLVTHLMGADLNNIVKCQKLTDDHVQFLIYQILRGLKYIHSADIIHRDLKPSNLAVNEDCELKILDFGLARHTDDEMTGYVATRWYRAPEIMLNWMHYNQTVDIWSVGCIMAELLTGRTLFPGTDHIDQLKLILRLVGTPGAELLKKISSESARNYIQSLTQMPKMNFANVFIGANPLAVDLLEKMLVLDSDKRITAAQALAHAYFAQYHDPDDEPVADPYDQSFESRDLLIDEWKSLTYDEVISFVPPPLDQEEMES
Protocol: IC50 determinations were performed using the luminescence-based ADP-Glo^TM assay by Promega, which measures kinase activity based on ADP formation. All required reagents were prepared according to manufacturer’s protocol. […] The kinase reaction was started by adding the substrate and ATP. After 60 min incubation time, the reaction was terminated by adding ADP-Glo^TM reagent and an incubation time of 60 min. At last, ADP-Glo TM kinase detection reagent was added and incubated for 30 min. All reactions were carried out on a plate shaker at room temperature. […] The ratio between kinase reaction, ADP-Glo TM reagent and ADP-Glo TM kinase detection reagent was 1:1:2. The positive control consisted of p38α MAP kinase, substrate and buffer. The assay was performed in triplicates. The negative control consisted of all kinase reaction components without enzyme. Luminescence was detected using the plate reader FilterMax F5 by Molecular Devices with subsequent data analysis using GraphPad Prism version 7.0.0. for Windows (GraphPad Software, San Diego, CA, USA).

p38α MAPK [5] = target: T1, p38α MAPK; assay: Cell-based eGFP-MK2 translocation assay, DLD1_eGFP-MK2 cells; design: endogenous in cells
From the text: (§1) For optical analysis, cells were fixed using 4% PFA/PBS following DAPI staining and subjected to automated high content analysis (HCA) image acquisition using an Image Xpress micro XL microscope (Molecular Devices). 40× Plan Apo objective was used to acquire FITC and DAPI signals at nine sites per well. MetaXpress® Custom Module Editor Software (64 bit, 6.2.3.733, Molecular Devices) was trained for automated image analysis. DAPI signal was used to define nuclear region of interest (ROI) and DAPI-negative cytoplasmic ring for respective cytoplasmic ROI. Non-cellular FITC background signals were subtracted from defined ROIs. Nuclear to cytoplasmic ratios were calculated from cellular fluorescence intensities of eGFP-MK2 reporter within defined ROIs. Cells with ratios within the 10–90 percentiles of all measured cells were taken into account.
Supplementary Figure 1. Cell-based eGFP-MK2 translocation assay: DLD1 cell line.
(A) Schematic overview of the cell-based eGFP-MK2 translocation assay. Active p38a MAPK phosphorylates its nuclear substrate MapKap2 (MK2) which leads to the exposure of the nuclear export signal and results in a cytoplasmic relocalization of MK2. Using a fluorescently labelled eGFP-MK2 as reporter, nuclear-cytoplasmic translocation can be used to monitor p38a MAPK […]
(B) Human DLD1 cell line stably […]
expressing eGFP-MK2 reporter under different treatment conditions.
(1 picture or pasted object on this page, not shown here)
Shown are microscopic images which were subjected to automated high content analysis to measure and calculate nuclear to cytoplasmic ratios of eGFP-MK2 signals providing the basis to evaluate inhibitory potency of p38a MAPK modulating […]
3 independent biological replicates. Scale bar: 50 µm. (C) Inhibition of eGFP-MK2 translocation by the compounds in DLD1_eGFP-MK2 cells. Normalized fluorescence (Fl) intensity ratio of […]
respectively. […] Data are presented as mean ± standard deviation (SD) of three biological replicates. Source data are provided as a Source Data […]
(§2) Supplementary Figure 2. Cell-based eGFP-MK2 translocation assay: HCT116 cell line.
(A) Human HCT116 cell line stably expressing eGFP-MK2 reporter under different treatment

p38α MAPK [6] = target: T1, p38α MAPK; assay: Cell-based eGFP-MK2 translocation assay, HCT116_eGFP-MK2 cells; design: endogenous in cells
From the text: as §1, with “account. […]” for “account.”
as §2
(A) Human HCT116 cell line stably expressing eGFP-MK2 reporter under different treatment […]
nucleus. Upon activation of the MAPK/p38 pathway, eGFP-MK2 is translocated to the cytoplasm […]
microscopic images which were subjected to automated high content analysis to measure and calculate nuclear to cytoplasmic ratios of eGFP-MK2 signals providing the basis to evaluate inhibitory potency of p38a MAPK modulating compounds. […]
sites that were imaged per condition for each of 3 independent biological replicates. Scale bar:
Normalized fluorescence (Fl) intensity ratio of nucleus/cytoplasm.
Data are presented as mean ± SD of three biological replicates. […]

T1 sequence (Q16539 whole entry): as above

IC50 (p38α MAPK [3]): < 1 nM
millipolarization mP (p38α MAPK [4]; Time 15 min): 250.23 mP and 238.61 mP and 252.02 mP
millipolarization mP (p38α MAPK [4]; Time 20 min): 235.80 mP and 229.96 mP and 227.02 mP
millipolarization mP (p38α MAPK [4]; Time 25 min): 216.96 mP and 215.61 mP and 220.53 mP
millipolarization mP (p38α MAPK [4]; Time 30 min): 204.83 mP and 208.80 mP and 213.25 mP
millipolarization mP (p38α MAPK [4]; Time 35 min): 199.40 mP and 197.40 mP and 204.19 mP
millipolarization mP (p38α MAPK [4]; Time 40 min): 190.24 mP and 185.07 mP and 187.77 mP
millipolarization mP (p38α MAPK [4]; Time 45 min): 188.70 mP and 189.13 mP and 187.22 mP
millipolarization mP (p38α MAPK [4]; Time 50 min): 189.84 mP and 186.39 mP and 191.23 mP
millipolarization mP (p38α MAPK [4]; Time 55 min): 181.96 mP and 176.31 mP and 180.38 mP
millipolarization mP (p38α MAPK [4]; Time 60 min): 189.85 mP and 181.69 mP and 188.39 mP
millipolarization mP (p38α MAPK [4]; Time 65 min): 179.72 mP and 178.04 mP and 185.39 mP
millipolarization mP (p38α MAPK [4]; Time 70 min): 177.53 mP and 176.90 mP and 187.97 mP
millipolarization mP (p38α MAPK [4]; Time 75 min): 176.40 mP and 178.56 mP and 178.94 mP
millipolarization mP (p38α MAPK [4]; Time 80 min): 170.47 mP and 176.86 mP and 179.41 mP
millipolarization mP (p38α MAPK [4]; Time 85 min): 174.74 mP and 171.47 mP and 178.98 mP
millipolarization mP (p38α MAPK [4]; Time 90 min): 181.04 mP and 173.23 mP and 180.81 mP
millipolarization mP (p38α MAPK [4]; Time 95 min): 176.14 mP and 169.30 mP and 175.95 mP
millipolarization mP (p38α MAPK [4]; Time 100 min): 170.48 mP and 168.26 mP and 169.78 mP
millipolarization mP (p38α MAPK [4]; Time 105 min): 171.74 mP and 175.00 mP and 171.83 mP
millipolarization mP (p38α MAPK [4]; Time 110 min): 170.01 mP and 167.74 mP and 170.08 mP
millipolarization mP (p38α MAPK [4]; Time 115 min): 166.92 mP and 166.97 mP and 168.10 mP
millipolarization mP (p38α MAPK [4]; Time 120 min): 173.62 mP and 170.72 mP and 174.62 mP
millipolarization mP (p38α MAPK [4]; Time 125 min): 170.41 mP and 162.47 mP and 172.42 mP
millipolarization mP (p38α MAPK [4]; Time 130 min): 163.64 mP and 172.89 mP and 166.09 mP
millipolarization mP (p38α MAPK [4]; Time 135 min): 165.07 mP and 173.17 mP and 167.48 mP
millipolarization mP (p38α MAPK [4]; Time 140 min): 163.17 mP and 162.11 mP and 161.18 mP
millipolarization mP (p38α MAPK [4]; Time 145 min): 163.48 mP and 161.58 mP and 158.43 mP
millipolarization mP (p38α MAPK [4]; Time 150 min): 162.36 mP and 163.56 mP and 167.43 mP
millipolarization mP (p38α MAPK [4]; Time 155 min): 167.52 mP and 168.31 mP and 165.22 mP
millipolarization mP (p38α MAPK [4]; Time 160 min): 157.97 mP and 163.71 mP and 167.13 mP
millipolarization mP (p38α MAPK [4]; Time 170 min): 171.90 mP and 157.15 mP and 163.48 mP
millipolarization mP (p38α MAPK [4]; Time 175 min): 163.57 mP and 163.80 mP and 163.61 mP
millipolarization mP (p38α MAPK [4]; Time 180 min): 166.27 mP
TRT (p38α MAPK [4]; individual replicas 1-3): 317 s and 109 s and 270 s
TRT [sec] mean (p38α MAPK [4]; mean of 3 replicas): 232 s
residence time (p38α MAPK [4]; mean ± SD, n = 3, 1/koff, jump dilution 1:100, 40 μM ATP, ATF2, read-out: Target residence time FP (converted)): 3.87 min
IC50 (p38α MAP kinase; mean ± SD, 150 μM ATP, read-out: IC50 isolated enzyme p38α MAPK ADP-Glo (mean)): 31.3 nM and 31 nM
IC50 (p38α MAP kinase; single experiments of source data, read-out: IC50 ADP Glo, individual determination): 35 nM and 40 nM and 19 nM
norm. FI (nucleus/ cytoplasm) (p38α MAPK [5]; DLD1_eGFP-MK2, conc. 100 pM): 0.794
norm. FI (nucleus/ cytoplasm) (p38α MAPK [5]; DLD1_eGFP-MK2, conc. 1e-9 M): 0.8106
norm. FI (nucleus/ cytoplasm) (p38α MAPK [5]; DLD1_eGFP-MK2, conc. 3e-9 M): 0.8345
norm. FI (nucleus/ cytoplasm) (p38α MAPK [5]; DLD1_eGFP-MK2, conc. 3e-8 M): 0.9192
norm. FI (nucleus/ cytoplasm) (p38α MAPK [5]; DLD1_eGFP-MK2, conc. 1e-7 M): 0.9569
norm. FI (nucleus/ cytoplasm) (p38α MAPK [5]; DLD1_eGFP-MK2, conc. 1e-6 M): 1.002
norm. FI (nucleus/ cytoplasm) (p38α MAPK [5]; DLD1_eGFP-MK2, conc. 1e-5 M): 1.014
norm. FI (nucleus/ cytoplasm) (p38α MAPK [5]; DLD1_eGFP-MK2, conc. 1e-5 M (last column, after 1e-10)): 0.8162
IC50 (p38α MAPK [5]; DLD1_eGFP-MK2 cells, 1 h compound, n = 3, read-out: IC50 cell-based MK2 translocation DLD1): 25.6 nM
norm. FI (nucleus/ cytoplasm) (p38α MAPK [6]; HCT116_eGFP-MK2, conc. 100 pM): 0.8572
norm. FI (nucleus/ cytoplasm) (p38α MAPK [6]; HCT116_eGFP-MK2, conc. 1e-9 M): 0.8754
norm. FI (nucleus/ cytoplasm) (p38α MAPK [6]; HCT116_eGFP-MK2, conc. 3e-9 M): 0.8746
norm. FI (nucleus/ cytoplasm) (p38α MAPK [6]; HCT116_eGFP-MK2, conc. 1e-8 M): 0.937
norm. FI (nucleus/ cytoplasm) (p38α MAPK [6]; HCT116_eGFP-MK2, conc. 3e-8 M): 0.9809
norm. FI (nucleus/ cytoplasm) (p38α MAPK [6]; HCT116_eGFP-MK2, conc. 1e-7 M): 1.0322
norm. FI (nucleus/ cytoplasm) (p38α MAPK [6]; HCT116_eGFP-MK2, conc. 1e-6 M): 1.03
norm. FI (nucleus/ cytoplasm) (p38α MAPK [6]; HCT116_eGFP-MK2, conc. 1e-5 M): 1.052
norm. FI (nucleus/ cytoplasm) (p38α MAPK [6]; HCT116_eGFP-MK2, conc. 1e-5 M (last column, after 1e-10)): 0.8753
IC50 (p38α MAPK [6]; HCT116_eGFP-MK2 cells, 1 h compound, n = 3, read-out: IC50 cell-based MK2 translocation HCT116): 14.9 nM
Structure (SMILES): O=C(NCCN1CCOCC1)c1ccc2c(c1)C(=O)c1ccc(Nc3ccc(F)cc3F)cc1CC2 [Compound 1]
IC50 (p38α MAPK [1]; mean ± SD, n = 3, read-out: IC50 isolated enzyme p38α MAPK ELISA (mean)): 3.4 nM and 3.35 nM
IC50 (p38α MAPK [1]; single experiments of source data, read-out: IC50 ELISA, individual determination): 3.54 nM and 3.5 nM
Target residence time SPR (p38α MAPK [2]): 36 s

— article PMC8799644, “Decisive role of water and protein dynamics in residence time of p38α MAP kinase inhibitors” (Nature Communications, 2022)
